Source: PubChem BioAssay AID1963446 (Molecular Pharmacology Branch, DTP, NCI, 2024)
Where “and” joins values, the source holds several entries; their conditions need not be identical. Identical values can stand only once.

System: 993429-296-R-J1-PDC complex spheroid growth, percent test/control
Experiment: Anticancer human tumor 993429-296-R-J1-PDC patient-derived uterine sarcoma cell line growth inhibition [Asc]
Conditions: for viability, T/C: stronger effect = lower value
How it was run: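 Tumor cells were grown as multicellular spheroids with stromal HUVEC and mesenchymal stem cells and treated singly or in combination. Concentrations fell in half-log steps from the clinical Cmax, or from 10 microM where none was known.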

[1] = curve of first compound, second compound 0.1 µM
[2] = curve of first compound, second compound 0.316 µM
[3] = curve of first compound, second compound 1 µM
[4] = curve of first compound, second compound 3.16 µM
[5] = curve of first compound, second compound 10 µM
[6] = second compound 0.1 µM, first compound 0.00316 µM
[7] = second compound 0.1 µM, first compound 0.01 µM
[8] = second compound 0.1 µM, first compound 0.0316 µM
[9] = second compound 0.1 µM, first compound 0.1 µM
[10] = second compound 0.316 µM, first compound 0.00316 µM
[11] = second compound 0.316 µM, first compound 0.01 µM
[12] = second compound 0.316 µM, first compound 0.0316 µM
[13] = second compound 0.316 µM, first compound 0.1 µM
[14] = second compound 1 µM, first compound 0.00316 µM
[15] = second compound 1 µM, first compound 0.01 µM
[16] = second compound 1 µM, first compound 0.0316 µM
[17] = second compound 1 µM, first compound 0.1 µM
[18] = second compound 3.16 µM, first compound 0.00316 µM
[19] = second compound 3.16 µM, first compound 0.01 µM
[20] = second compound 3.16 µM, first compound 0.0316 µM
[21] = second compound 3.16 µM, first compound 0.1 µM
[22] = second compound 10 µM, first compound 0.00316 µM
[23] = second compound 10 µM, first compound 0.01 µM
[24] = second compound 10 µM, first compound 0.0316 µM
[25] = second compound 10 µM, first compound 0.1 µM
[26] = second compound 0.1 µM, first compound 0.316 µM
[27] = second compound 0.1 µM, first compound 1 µM
[28] = second compound 0.316 µM, first compound 0.316 µM
[29] = second compound 0.316 µM, first compound 1 µM
[30] = second compound 1 µM, first compound 0.316 µM
[31] = second compound 1 µM, first compound 1 µM
[32] = second compound 3.16 µM, first compound 0.316 µM
[33] = second compound 3.16 µM, first compound 1 µM
[34] = second compound 10 µM, first compound 0.316 µM
[35] = second compound 10 µM, first compound 1 µM
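Note: spheroids exposed to compounds for seven days.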

SMILES	IC50 [1]	IC50 [2]	IC50 [3]	IC50 [4]	IC50 [5]	viability, T/C [6]	viability, T/C [7]	viability, T/C [8]	viability, T/C [9]	viability, T/C [10]	viability, T/C [11]	viability, T/C [12]	viability, T/C [13]	viability, T/C [14]	viability, T/C [15]	viability, T/C [16]	viability, T/C [17]	viability, T/C [18]	viability, T/C [19]	viability, T/C [20]	also measured
NC1CCC(NC2CC2c2ccccc2)CC1 (configuration not stated) + Cc1c(S(C)(=O)=O)c(-c2cc(F)cc(N3CCN(c4ccc(NS(=O)(=O)c5ccc(NC(CCN6CCC(C(=O)OCCCP(=O)(O)O)CC6)CSc6ccccc6)c(S(=O)(=O)C(F)(F)F)c5)cc4)CC3)c2)c(-c2ccc(Cl)cc2)n1C(C)C	> 100 nM	8.25 nM	< 0.316 nM	< 0.316 nM	< 0.316 nM	65%	57.6%	65.2%	65.3%	57%	46.4%	47.9%	51.6%	29.1%	30.5%	28.3%	35.4%	28.6%	25.6%	30.5%	viability, T/C (second compound 0.1 µM, first compound 0.000316 µM): 72.7%; viability, T/C (second compound 0.1 µM, first compound 0.001 µM): 65.1%; viability, T/C (second compound 0.316 µM, first compound 0.000316 µM): 61.2%; viability, T/C (second compound 0.316 µM, first compound 0.001 µM): 60.9%; viability, T/C (second compound 1 µM, first compound 0.000316 µM): 32.5%; viability, T/C (second compound 1 µM, first compound 0.001 µM): 30.4%; viability, T/C (second compound 3.16 µM, first compound 0.000316 µM): 27%; viability, T/C (second compound 3.16 µM, first compound 0.001 µM): 28.9%; viability, T/C [21]: 31.7%; viability, T/C (second compound 10 µM, first compound 0.000316 µM): 30%; viability, T/C (second compound 10 µM, first compound 0.001 µM): 41.7%; viability, T/C [22]: 26.4%; viability, T/C [23]: 26.3%; viability, T/C [24]: 32.9%; viability, T/C [25]: 36.8%
CNC(C)C(=O)NC1CN(S(=O)(=O)c2cccc(S(=O)(=O)N3CCC4CCC(C(=O)NC(c5ccccc5)c5ccccc5)N4C(=O)C(NC(=O)C(C)NC)C3)c2)CCC2CCC(C(=O)NC(c3ccccc3)c3ccccc3)N2C1=O (configuration not stated) + Cc1c(S(C)(=O)=O)c(-c2cc(F)cc(N3CCN(c4ccc(NS(=O)(=O)c5ccc(NC(CCN6CCC(C(=O)OCCCP(=O)(O)O)CC6)CSc6ccccc6)c(S(=O)(=O)C(F)(F)F)c5)cc4)CC3)c2)c(-c2ccc(Cl)cc2)n1C(C)C	542 nM	100 nM	< 3.16 nM	3.25 nM	901 nM	75.5%	60.4%	62.1%	53%	59.3%	59.7%	54.3%	42%	48.9%	40.8%	47.4%	48.9%	50.2%	39.1%	29.4%	viability, T/C [26]: 56%; viability, T/C [27]: 45.3%; viability, T/C [28]: 54.6%; viability, T/C [29]: 41.7%; viability, T/C [30]: 41.6%; viability, T/C [31]: 42.8%; viability, T/C [21]: 30.7%; viability, T/C [32]: 34.5%; viability, T/C [33]: 24.1%; viability, T/C [22]: 85.5%; viability, T/C [23]: 81.9%; viability, T/C [24]: 67.5%; viability, T/C [25]: 56.8%; viability, T/C [34]: 45.5%; viability, T/C [35]: 53.5%
C=C(F)C(=O)N1CCN(c2nc(OCC3CCCN3C)nc3c2CCN(c2cccc4cccc(Cl)c24)C3)CC1CC#N (configuration not stated)	–	–	–	–	–	–	–	–	–	–	–	–	–	–	–	–	–	–	–	–	viability, T/C (compound 0.0316 µM): 85.9% and 98.6% and 98.2%; viability, T/C (compound 0.1 µM): 93.5% and 103% and 95.2%; viability, T/C (compound 0.316 µM): 82.5% and 88.7% and 91.7%; viability, T/C (compound 1 µM): 43.8% and 63.6% and 99.8%; viability, T/C (compound 3.16 µM): 6.98% and 7.87% and 29.6%; viability, T/C (compound 10 µM): 0.4% and 0.19% and 0.21%; IC50 (curve of compound): 836 nM and 1300 nM and 2220 nM
COc1c(OCCCN2CCOCC2)ccc2c3n(c(=NC(=O)c4cnc(N)nc4)nc12)CCN3 + Cc1c(S(C)(=O)=O)c(-c2cc(F)cc(N3CCN(c4ccc(NS(=O)(=O)c5ccc(NC(CCN6CCC(C(=O)OCCCP(=O)(O)O)CC6)CSc6ccccc6)c(S(=O)(=O)C(F)(F)F)c5)cc4)CC3)c2)c(-c2ccc(Cl)cc2)n1C(C)C	12.6 nM	11.6 nM	4.23 nM	< 3.16 nM	10.1 nM	76.5%	54.1%	29.3%	3.96%	71.7%	54%	22.2%	3.44%	54.2%	37.9%	23.3%	3.11%	35.8%	33.7%	14.8%	viability, T/C [26]: 1.63%; viability, T/C [27]: 0.23%; viability, T/C [28]: 0.88%; viability, T/C [29]: 0.17%; viability, T/C [30]: 0.68%; viability, T/C [31]: 0.31%; viability, T/C [21]: 2.35%; viability, T/C [32]: 0.33%; viability, T/C [33]: 0.18%; viability, T/C [22]: 79.3%; viability, T/C [23]: 49.4%; viability, T/C [24]: 20.7%; viability, T/C [25]: 1.24%; viability, T/C [34]: 0.28%; viability, T/C [35]: 0.25%
